Columns and labels:
[1] = Thermodynamic stability experiment of crystal form (slurrying in solvents); type: physicochemical
Experimental: Through polycrystalline screening test, the relatively thermodynamically stable crystal form of salt was found.
The mixture was slurried at 40 degrees for 2 days, and centrifuged, and the solid was oven-dried in vacuo at 40 degrees overnight, and then XRD and other corresponding characterizations were performed.

[2] = Solubility determination of crystal form C of tromethamine salt; type: physicochemical; settings: 37 °C, thermodynamic from solid
Experimental: 1 to 2 mg of compound 28 was weighed into a 1.5 mL liquid phase vial, then 1 mL of pH buffer, artificial simulated gastric fluid (FaSSGF), artificial fasted-state simulated intestinal fluid (FaSSIF), artificial non-fasted-state simulated intestinal fluid (FeSSIF), and pure water were respectively added, and the mixture was placed on a constant temperature oscillator overnight at a temperature of 37 degrees. After 24 h, the sample solution was filtered with a 0.45 μm mixed water fiber filter membrane and then the filtrate was taken. The content was tested by HPLC. For the HPLC detection method, please refer to the solution stability analysis method in Section 1.2.

XRD after slurrying for 2 days ([1]; EA 200 ul, 40 degrees): Crystal form C
XRD after slurrying for 2 days ([1]; EtOH 200 ul, 40 degrees): Crystal form C
XRD after slurrying for 2 days ([1]; Heptane 200 ul, 40 degrees): Crystal form C
XRD after slurrying for 2 days ([1]; IPA 200 ul, 40 degrees): Crystal form C
XRD after slurrying for 2 days ([1]; IPAC 200 ul, 40 degrees): Crystal form C
XRD after slurrying for 2 days ([1]; IPE 200 ul, 40 degrees): Crystal form C
XRD after slurrying for 2 days ([1]; MTBE 200 ul, 40 degrees): Crystal form C
XRD after slurrying for 2 days ([1]; hexane 200 ul, 40 degrees): Crystal form C
Stability of crystal form (in words) ([1]; slurried in solvents at 40 degrees for 2 days): very stable
Phenomenon after slurrying for 2 days ([1]; water 200 ul, 10 mg, 40 degrees): Dissolved clarification
solubility at 24 h ([2]; aqueous buffer, USP Buffer pH 7.4, 37 degrees): 254 µg/mL
solubility at 24 h ([2]; FaSSIF, 37 degrees): 478 µg/mL
solubility at 24 h ([2]; FeSSIF, 37 degrees): 756 µg/mL
solubility at 24 h ([2]; water, H2O, 37 degrees): 66.4 µg/mL
Structure (SMILES): O=C(O)c1ccc2nc(CN3CCC(c4cccc5c4OC(c4ccc(Cl)cc4F)C=C5)CC3)n(CC3CCO3)c2c1 (centres unmarked)

From patent US20260226046A1 (JIANGSU HANSOH PHARMACEUTICAL GROUP CO., LTD., priority 2023, published 2026)
